As a reminder, the inhibition is the percentage by which the read-out fell short of the control. Low values mean a response near the control, high ones a response far below the control.

In this experiment the test system is PDHE1α S293. Put plainly: In vitro PDH S293 phosphorylation inhibition (Western blot) in HEK293 cells. Type of experiment: cell-based, human. The following applies: Homo sapiens, 5 hours. The method, then:
HEK293 cells, which are human embryonic kidney cells, were seeded at a density of 2 × 10^6 in a 60 mm dish, and cultured for 24 hours. After replacing the medium with a medium comprising 0.5% FBS, the compounds prepared according to Examples 1 to 54 were treated at various concentrations. 5 hours later, the cells were scraped off and collected into a 15 mL conical tube and centrifuged at 1500 rpm for 10 minutes. The supernatant was discarded, the resultant was washed with 1× PBS, and transferred to a 1.5 mL e-tube, followed by centrifugation at 10,000 rpm for 5 minutes. The supernatant was discarded again, a lysis buffer was added, and the cells were lysed on ice for 30 minutes. The cells were vortexed every 10 minutes to completely lyse, and centrifuged again at 10,000 rpm for 15 minutes at 4°C, and the supernatant was collected. The protein in the supernatant was quantified using BCA technique, and the sample buffer was added to 20 µg of protein and allowed to react at 70°C for 5 minutes. The expression of PDHE1α S232, S293, S300, and total PDHE1α proteins was detected by Western blot, and the resulting PDH S293 phosphorylation inhibition is shown in Table 6. […]
The compound `CC(C(=O)NNc1ccccc1F)n1cc(-c2cc(F)cc3c2-c2ccccc2C3(O)C(F)(F)F)cn1` (stereo not drawn) [Example 13, 2-(4-(2-fluoro-9-hydroxy-9-(trifluoromethyl)-9H-fluoren-4-yl)-1H-pyrazol-1-yl)-N'-(2-fluorophenyl)propanehydrazide] gave an inhibition at 1 µM of no less than 50%.

Compound `CC(C(=O)NNc1ccc(C(=O)O)cn1)n1cc(-c2cc(F)cc3c2-c2ccccc2C3(O)C(F)(F)F)cn1` (stereo not drawn) [Example 14, 6-(2-(2-(4-(2-fluoro-9-hydroxy-9-(trifluoromethyl)-9H-fluoren-4-yl)-1H-pyrazol-1-yl)propanoyl)hydrazinyl)nicotinic acid] gave an inhibition at 1 µM of no less than 50%.

`COc1cc(-c2cnn(C(C)C(=O)NNc3ccc(C(=O)OC(C)(C)C)cn3)c2)c2c(c1)C(O)(C(F)(F)F)c1ccccc1-2` (stereo not drawn) [Example 15, tert-butyl 6-(2-(2-(4-(9-hydroxy-2-methoxy-9-(trifluoromethyl)-9H-fluoren-4-yl)-1H-pyrazol-1-yl)propanoyl)hydrazinyl)nicotinate]: the inhibition at 1 µM is no less than 50%.

With `COc1cc(-c2cnn(C(C)C(=O)NNc3ccc(C(=O)O)cn3)c2)c2c(c1)C(O)(C(F)(F)F)c1ccccc1-2` (stereo not drawn) [Example 16, 6-(2-(2-(4-(9-hydroxy-2-methoxy-9-(trifluoromethyl)-9H-fluoren-4-yl)-1H-pyrazol-1-yl)propanoyl)hydrazinyl)nicotinic acid], the inhibition at 1 µM was no less than 50%.

`COc1cc(-c2cnn(C(C)C(=O)NNc3ccccn3)c2)c2c(c1)C(O)(C(F)(F)F)c1ccccc1-2` (stereo not drawn) [Example 17, 2-(4-(9-hydroxy-2-methoxy-9-(trifluoromethyl)-9H-fluoren-4-yl)-1H-pyrazol-1-yl)-N'-(pyridin-2-yl)propanehydrazide] returned an inhibition at 1 µM of no less than 50%.

The compound `O=C(Cn1cc(-c2cc(F)cc3c2-c2ccccc2C3(O)C(F)(F)F)cn1)NNc1ccccn1` (stereo not drawn) [Example 18, 2-(4-(2-fluoro-9-hydroxy-9-(trifluoromethyl)-9H-fluoren-4-yl)-1H-pyrazol-1-yl)-N'-(pyridin-2-yl)acetohydrazide] registered an inhibition at 1 µM of no less than 80%.

In turn, `CC(C)(C)OC(=O)c1ccc(NNC(=O)Cn2cc(-c3cc(F)cc4c3-c3ccccc3C4(O)C(F)(F)F)cn2)nc1` (stereo not drawn) [Example 19, tert-butyl 6-(2-(2-(4-(2-fluoro-9-hydroxy-9-(trifluoromethyl)-9H-fluoren-4-yl)-1H-pyrazol-1-yl)acetyl)hydrazinyl)nicotinate] displayed an inhibition at 1 µM of no less than 50%.

`O=C(Cn1cc(-c2cc(F)cc3c2-c2ccccc2C3(O)C(F)(F)F)cn1)NNc1ccc(C(=O)O)cn1` (stereo not drawn) [Example 20, 6-(2-(2-(4-(2-fluoro-9-hydroxy-9-(trifluoromethyl)-9H-fluoren-4-yl)-1H-pyrazol-1-yl)acetyl)hydrazinyl)nicotinic acid] had an inhibition at 1 µM of no less than 50%.

Compound `O=C(Cn1cc(-c2cc(F)cc3c2-c2ccccc2C3(O)C(F)(F)F)cn1)NNc1ccc(F)cc1` (stereo not drawn) [Example 21, 2-(4-(2-fluoro-9-hydroxy-9-(trifluoromethyl)-9H-fluoren-4-yl)-1H-pyrazol-1-yl)-N'-(4-fluorophenyl)acetohydrazide] showed an inhibition at 1 µM of no less than 50%.

With `CC(C(=O)NNc1ccc(S(C)(=O)=O)cc1)n1cc(-c2cc(F)cc3c2-c2ccccc2C3(O)C(F)(F)F)cn1` (stereo not drawn) [Example 22, 2-(4-(2-fluoro-9-hydroxy-9-(trifluoromethyl)-9H-fluoren-4-yl)-1H-pyrazol-1-yl)-N'-(4-(methylsulfonyl)phenyl)propanehydrazide], the inhibition at 1 µM was no less than 50%.

`COc1cc(-c2cnn(C(C)C(=O)NNc3ccc(S(C)(=O)=O)cc3)c2)c2c(c1)C(O)(C(F)(F)F)c1ccccc1-2` (stereo not drawn) [Example 23, 2-(4-(9-hydroxy-2-methoxy-9-(trifluoromethyl)-9H-fluoren-4-yl)-1H-pyrazol-1-yl)-N'-(4-(methylsulfonyl)phenyl)propanehydrazide]: the inhibition at 1 µM is no less than 50%.

The compound `CC(C(=O)NNc1cnccn1)n1cc(-c2cc(F)cc3c2-c2ccccc2C3(O)C(F)(F)F)cn1` (stereo not drawn) [Example 24, 2-(4-(2-fluoro-9-hydroxy-9-(trifluoromethyl)-9H-fluoren-4-yl)-1H-pyrazol-1-yl)-N'-(pyrazin-2-yl)propanehydrazide] came in with an inhibition at 1 µM of no less than 50%.

The compound `COc1cc(-c2cnn(C(C)C(=O)NNc3cnccn3)c2)c2c(c1)C(O)(C(F)(F)F)c1ccccc1-2` (stereo not drawn) [Example 25, 2-(4-(9-hydroxy-2-methoxy-9-(trifluoromethyl)-9H-fluoren-4-yl)-1H-pyrazol-1-yl)-N'-(pyrazin-2-yl)propanehydrazide] yielded an inhibition at 1 µM of no less than 50%.

The compound `CC(C(=O)NNc1ccc(C(F)(F)F)cn1)n1cc(-c2cc(F)cc3c2-c2ccccc2C3(O)C(F)(F)F)cn1` (stereo not drawn) [Example 26, 2-(4-(2-fluoro-9-hydroxy-9-(trifluoromethyl)-9H-fluoren-4-yl)-1H-pyrazol-1-yl)-N'-(5-(trifluoromethyl)pyridin-2-yl)propanehydrazide] had an inhibition at 1 µM of no less than 50%.

`COc1cc(-c2cnn(C(C)C(=O)NNc3ccc(C(F)(F)F)cn3)c2)c2c(c1)C(O)(C(F)(F)F)c1ccccc1-2` (stereo not drawn) [Example 27, 2-(4-(9-hydroxy-2-methoxy-9-(trifluoromethyl)-9H-fluoren-4-yl)-1H-pyrazol-1-yl)-N'-(5-(trifluoromethyl)pyridin-2-yl)propanehydrazide] registered an inhibition at 1 µM of no less than 50%.

The compound `CC(C(=O)NNc1ncccn1)n1cc(-c2cc(F)cc3c2-c2ccccc2C3(O)C(F)(F)F)cn1` (stereo not drawn) [Example 28, 2-(4-(2-fluoro-9-hydroxy-9-(trifluoromethyl)-9H-fluoren-4-yl)-1H-pyrazol-1-yl)-N'-(pyrimidin-2-yl)propanehydrazide] displayed an inhibition at 1 µM of no less than 50%.

For `COc1cc(-c2cnn(C(C)C(=O)NNc3ncccn3)c2)c2c(c1)C(O)(C(F)(F)F)c1ccccc1-2` (stereo not drawn) [Example 29, 2-(4-(9-hydroxy-2-methoxy-9-(trifluoromethyl)-9H-fluoren-4-yl)-1H-pyrazol-1-yl)-N'-(pyrimidin-2-yl)propanehydrazide], the inhibition at 1 µM was no less than 50%.

In turn, `CC(C(=O)NNc1cccnc1)n1cc(-c2cc(F)cc3c2-c2ccccc2C3(O)C(F)(F)F)cn1` (stereo not drawn) [Example 30, 2-(4-(2-fluoro-9-hydroxy-9-(trifluoromethyl)-9H-fluoren-4-yl)-1H-pyrazol-1-yl)-N'-(pyridin-3-yl)propanehydrazide] yielded an inhibition at 1 µM of no less than 50%.

`COc1cc(-c2cnn(C(C)C(=O)NNc3cccnc3)c2)c2c(c1)C(O)(C(F)(F)F)c1ccccc1-2` (stereo not drawn) [Example 31, 2-(4-(9-hydroxy-2-methoxy-9-(trifluoromethyl)-9H-fluoren-4-yl)-1H-pyrazol-1-yl)-N'-(pyridin-3-yl)propanehydrazide] had an inhibition at 1 µM of no less than 50%.

Consider `CC(C(=O)NNc1ccncc1)n1cc(-c2cc(F)cc3c2-c2ccccc2C3(O)C(F)(F)F)cn1` (stereo not drawn) [Example 34, 2-(4-(2-fluoro-9-hydroxy-9-(trifluoromethyl)-9H-fluoren-4-yl)-1H-pyrazol-1-yl)-N'-(pyridin-4-yl)propanehydrazide], for which the inhibition at 1 µM was no less than 50%.

As to `CC(C(=O)NNc1ncnc2ccccc12)n1cc(-c2cc(F)cc3c2-c2ccccc2C3(O)C(F)(F)F)cn1` (stereo not drawn) [Example 35, 2-(4-(2-fluoro-9-hydroxy-9-(trifluoromethyl)-9H-fluoren-4-yl)-1H-pyrazol-1-yl)-N'-(quinazolin-4-yl)propanehydrazide], the inhibition at 1 µM is no less than 50%.

In the case of `CC(C(=O)NNc1ccnc2ccccc12)n1cc(-c2cc(F)cc3c2-c2ccccc2C3(O)C(F)(F)F)cn1` (stereo not drawn) [Example 36, 2-(4-(2-fluoro-9-hydroxy-9-(trifluoromethyl)-9H-fluoren-4-yl)-1H-pyrazol-1-yl)-N'-(quinolin-4-yl)propanehydrazide], the inhibition at 1 µM was no less than 50%.

The compound `CC(C(=O)NNc1cnc2ccccc2n1)n1cc(-c2cc(F)cc3c2-c2ccccc2C3(O)C(F)(F)F)cn1` (stereo not drawn) [Example 37, 2-(4-(2-fluoro-9-hydroxy-9-(trifluoromethyl)-9H-fluoren-4-yl)-1H-pyrazol-1-yl)-N'-(quinoxalin-2-yl)propanehydrazide] came in with an inhibition at 1 µM of no less than 50%.

For `CC(C(=O)NNc1cc2ccccc2[nH]c1=O)n1cc(-c2cc(F)cc3c2-c2ccccc2C3(O)C(F)(F)F)cn1` (stereo not drawn) [Example 38, 2-(4-(2-fluoro-9-hydroxy-9-(trifluoromethyl)-9H-fluoren-4-yl)-1H-pyrazol-1-yl)-N'-(2-oxo-1,2-dihydroquinolin-3-yl)propanehydrazide], the inhibition at 1 µM is no less than 50%.

`CC(C(=O)NNc1ccc2ccccc2n1)n1cc(-c2cc(F)cc3c2-c2ccccc2C3(O)C(F)(F)F)cn1` (stereo not drawn) [Example 39, 2-(4-(2-fluoro-9-hydroxy-9-(trifluoromethyl)-9H-fluoren-4-yl)-1H-pyrazol-1-yl)-N'-(quinolin-2-yl)propanehydrazide] returned an inhibition at 1 µM of no less than 50%.

As for `CC(C(=O)NNc1cc(=O)n(C)c2ccccc12)n1cc(-c2cc(F)cc3c2-c2ccccc2C3(O)C(F)(F)F)cn1` (stereo not drawn) [Example 40, 2-(4-(2-fluoro-9-hydroxy-9-(trifluoromethyl)-9H-fluoren-4-yl)-1H-pyrazol-1-yl)-N'-(1-methyl-2-oxo-1,2-dihydroquinolin-4-yl)propanehydrazide], the inhibition at 1 µM is no less than 50%.

`CC(C(=O)NNc1ccc2nccn2n1)n1cc(-c2cc(F)cc3c2-c2ccccc2C3(O)C(F)(F)F)cn1` (stereo not drawn) [Example 41, 2-(4-(2-fluoro-9-hydroxy-9-(trifluoromethyl)-9H-fluoren-4-yl)-1H-pyrazol-1-yl)-N'-(imidazo[1,2-b]pyridazin-6-yl)propanehydrazide] came in with an inhibition at 1 µM of no less than 50%.

Values taken from patent EP4596537A1, “NOVEL FLUORENE DERIVATIVE COMPOUND AND USE THEREOF” (JD Bioscience Inc., priority 2022, dated 2024).
